The first assay is described as follows: Compound was evaluated for its ability to displace [3H]-L-364,718 from Cholecystokinin type A receptor from rat pancreas.
For `Cc1cccc(NC(=O)NC2N=C(c3ccccc3)c3ccccc3N(CC(=O)CC3CCCCC3)C2=O)c1` (stereo not drawn) [1-[1-(3-Cyclohexyl-2-oxo-propyl)-2-oxo-5-phenyl-2,3-dihydro-1H-benzo[e][1,4]diazepin-3-yl]-3-m-tolyl-urea], the IC50 – broadly, the concentration that inhibits the measured activity by half – was determined as 480 nM.

As to `Cc1cccc(NC(=O)N[C@H]2N=C(c3ccccc3)c3ccccc3N(CC(=O)C3CCCC3)C2=O)c1` [1-[(S)-1-(2-Cyclopentyl-2-oxo-ethyl)-2-oxo-5-phenyl-2,3-dihydro-1H-benzo[e][1,4]diazepin-3-yl]-3-m-tolyl-urea], the IC50 is 2500 nM. Compared with the last molecule, the IC50 is about 5.2-fold higher.

For the molecule `Cc1cccc(NC(=O)NC2N=C(c3ccccc3)c3ccccc3N(CC(=O)C3(C)CCCC3)C2=O)c1` (stereo not drawn) [1-{1-[2-(1-Methyl-cyclopentyl)-2-oxo-ethyl]-2-oxo-5-phenyl-2,3-dihydro-1H-benzo[e][1,4]diazepin-3-yl}-3-m-tolyl-urea], the IC50 was found to be 293 nM.

Molecule `Cc1cccc(NC(=O)NC2N=C(c3ccccc3)c3ccccc3N(CC(=O)C(C)C)C2=O)c1` (stereo not drawn) [1-[1-(3-Methyl-2-oxo-butyl)-2-oxo-5-phenyl-2,3-dihydro-1H-benzo[e][1,4]diazepin-3-yl]-3-m-tolyl-urea] gave an IC50 of 1200 nM.

The molecule `Cc1cccc(NC(=O)N[C@@H]2N=C(c3ccccc3)c3ccccc3N(CC(=O)C3CCCC3)C2=O)c1` [1-[(R)-1-(2-Cyclopentyl-2-oxo-ethyl)-2-oxo-5-phenyl-2,3-dihydro-1H-benzo[e][1,4]diazepin-3-yl]-3-m-tolyl-urea] came in with a 50% inhibitory concentration (IC50) of 440 nM. Compared with the last molecule, the IC50 is about 2.7-fold lower.

Take `CCC(C)(C)C(=O)CN1C(=O)C(NC(=O)Nc2cccc(C)c2)N=C(c2ccccc2)c2ccccc21` (stereo not drawn) [1-[1-(3,3-Dimethyl-2-oxo-pentyl)-2-oxo-5-phenyl-2,3-dihydro-1H-benzo[e][1,4]diazepin-3-yl]-3-m-tolyl-urea]: the 50% inhibitory concentration (IC50) is 720 nM.

Consider `Cc1cccc(NC(=O)NC2N=C(c3ccccc3)c3ccccc3N(CC(=O)C3(C)CCCCC3)C2=O)c1` (stereo not drawn) [1-{1-[2-(1-Methyl-cyclohexyl)-2-oxo-ethyl]-2-oxo-5-phenyl-2,3-dihydro-1H-benzo[e][1,4]diazepin-3-yl}-3-m-tolyl-urea], for which the IC50 was greater than 10000 nM.

A short description of a further assay: Compound was evaluated for its ability to displace [3H]L-364718 from Cholecystokinin type A receptor from rat pancreas at dose of 0.03 umol/kg.
The molecule `Cc1cccc(NC(=O)N[C@@H]2N=C(c3ccccc3)c3ccccc3N(CC(=O)C(C)(C)C)C2=O)c1` [1-[(R)-1-(3,3-Dimethyl-2-oxo-butyl)-2-oxo-5-phenyl-2,3-dihydro-1H-benzo[e][1,4]diazepin-3-yl]-3-m-tolyl-urea] showed an IC50 of 111 nM. That is a sub-micromolar value.

Source of the values: BindingDB's records for doi:10.1016/0960-894X(95)00556-9 (1996).
